Assay results: US11103510B2, “JAK1 pathway inhibitors for the treatment of cytokine-related disorders” (Incyte Corporation, priority 2018, dated 2021)

Assays:
[1] = target: human JAK1 (a.a. 837-1142) (Homo sapiens, UniProt P23458); test: In vitro JAK kinase assay (HTRF), JAK1; type: biochemical; conditions: 1 mM ATP
Method: (§1) The catalytic activity of JAK1, JAK2 or JAK3 was assayed by measuring the phosphorylation of a biotinylated peptide. The phosphorylated peptide was detected by homogenous time resolved fluorescence (HTRF). […] Reactions are carried out at room temperature for 1 hour and then stopped with 20 μL 45 mM EDTA, 300 nM SA-APC, 6 nM Eu-Py20 in assay buffer (Perkin Elmer, Boston, Mass.). Binding to the Europium labeled antibody takes place for 40 minutes and HTRF signal was measured on a Fusion plate reader (Perkin Elmer, Boston, Mass.).

[2] = target: human JAK2 (a.a. 828-1132) (Homo sapiens (Human), UniProt O60674); test: In vitro JAK kinase assay (HTRF), JAK2, for JAK2/JAK1 ratio; type: biochemical; conditions: IC50 ratio, 1 mM ATP
Chain of human JAK2 (a.a. 828-1132) (O60674 828-1132): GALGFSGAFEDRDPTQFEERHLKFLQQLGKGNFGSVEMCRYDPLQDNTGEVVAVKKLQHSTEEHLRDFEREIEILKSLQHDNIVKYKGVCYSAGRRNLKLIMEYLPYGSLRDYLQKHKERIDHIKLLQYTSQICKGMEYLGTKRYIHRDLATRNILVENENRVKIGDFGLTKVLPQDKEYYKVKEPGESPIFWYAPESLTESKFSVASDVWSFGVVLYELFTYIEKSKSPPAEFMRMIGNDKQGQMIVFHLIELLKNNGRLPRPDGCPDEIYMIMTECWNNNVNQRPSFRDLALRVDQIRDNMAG
Method: as §1

## N#CCC1(n2cc(-c3ncnc4[nH]ccc34)cn2)CN([C@H]2CC[C@@H](Oc3cc(CN4CC[C@@H](O)C4)cc(C(F)(F)F)n3)CC2)C1 [Compound 21, {1-(cis-4-{[4-{[(3R)-3-hydroxypyrrolidin-1-yl]methyl}-6-(trifluoromethyl)pyridin-2-yl]oxy}cyclohexyl)-3-[4-(7H-pyrrolo[2,3-d]pyrimidin-4-yl)-1H-pyrazol-1-yl]azetidin-3-yl}acetonitrile]
[1]
  IC50: < 10 nM
[2]
  JAK2/JAK1: >10

## N#CCC(C1CCN(c2cccc(Cl)n2)C1)n1cc(-c2ncnc3[nH]ccc23)cn1 (single isomer, unassigned) [Compound 6, 3-[1-(6-chloropyridin-2-yl)pyrrolidin-3-yl]-3-[4-(7H-pyrrolo[2,3-d]pyrimidin-4-yl)-1H-pyrazol-1-yl]propanenitrile]
[1]
  IC50: < 10 nM
[2]
  JAK2/JAK1: >10

## C[C@H](NC(=O)c1cc(F)c(N2CC(CC#N)(n3cc(-c4ncnc5[nH]ccc45)cn3)C2)cc1F)C(F)(F)F [Compound 16, 4-{3-(cyanomethyl)-3-[4-(7H-pyrrolo[2,3-d]pyrimidin-4-yl)-1H-pyrazol-1-yl]azetidin-1-yl}-2,5-difluoro-N-[(1S)-2,2,2-trifluoro-1-methylethyl]benzamide]
[1]
  IC50: < 10 nM
[2]
  JAK2/JAK1: >10

## C[C@@H](CO)NCc1cc(OC2CCN([C@H]3C[C@](CC#N)(n4cc(-c5ncnc6[nH]ccc56)cn4)C3)CC2)nc(C(F)(F)F)c1 [Compound 23, {trans-3-(4-{[4-({[(1S)-2-hydroxy-1-methylethyl]amino}methyl)-6-(trifluoromethyl)pyridin-2-yl]oxy}piperidin-1-yl)-1-[4-(7H-pyrrolo[2,3-d]pyrimidin-4-yl)-1H-pyrazol-1-yl]cyclobutyl}acetonitrile]
[1]
  IC50: < 10 nM
[2]
  JAK2/JAK1: >10

## CC(C)(O)c1cc(O[C@H]2CC[C@@H](N3CC(CC#N)(n4cc(-c5ncnc6[nH]ccc56)cn4)C3)CC2)nc(C(F)(F)F)c1 [Compound 20, {1-(cis-4-{[4-(1-hydroxy-1-methylethyl)-6-(trifluoromethyl)pyridin-2-yl]oxy}cyclohexyl)-3-[4-(7H-pyrrolo[2,3-d]pyrimidin-4-yl)-1H-pyrazol-1-yl]azetidin-3-yl}acetonitrile]
[1]
  IC50: < 10 nM
[2]
  JAK2/JAK1: >10

## N#CCC1(n2cc(-c3ncnc4[nH]ccc34)cn2)CN(C2CCN(C(=O)c3ccnc(C(F)(F)F)n3)CC2)C1 [Compound 3, [3-[4-(7H-pyrrolo[2,3-d]pyrimidin-4-yl)-1H-pyrazol-1-yl]-1-(1-{[2-(trifluoromethyl)pyrimidin-4-yl]carbonyl}piperidin-4-yl)azetidin-3-yl]acetonitrile]
[1]
  IC50: < 10 nM
[2]
  JAK2/JAK1: >10

## N#CCC1(n2cc(-c3ncnc4[nH]ccc34)cn2)CN([C@H]2CC[C@@H](Oc3cc(CCO)nc(C(F)(F)F)n3)CC2)C1 [Compound 18, {1-(cis-4-{[6-(2-hydroxyethyl)-2-(trifluoromethyl)pyrimidin-4-yl]oxy}cyclohexyl)-3-[4-(7H-pyrrolo[2,3-d]pyrimidin-4-yl)-1H-pyrazol-1-yl]azetidin-3-yl}acetonitrile]
[1]
  IC50: < 10 nM
[2]
  JAK2/JAK1: >10

## N#CCC1(n2cc(-c3ncnc4[nH]ccc34)cn2)CN(C2CCN(C(=O)Nc3ccc(F)cc3C(F)(F)F)CC2)C1 [Compound 2, 4-{3-(Cyanomethyl)-3-[4-(7H-pyrrolo[2,3-d]pyrimidin-4-yl)-1H-pyrazol-1-yl]azetidin-1-yl}-N-[4-fluoro-2-(trifluoromethyl)phenyl]piperidine-1-carboxamide]
[1]
  IC50: < 10 nM
[2]
  JAK2/JAK1: >10

## N#CC[C@]1(n2cc(-c3ncnc4[nH]ccc34)cn2)C[C@H](N2CCN(C(=O)c3ccnc(C(F)(F)F)n3)CC2)C1 [Compound 10, [trans-1-[4-(7H-pyrrolo[2,3-d]pyrimidin-4-yl)-1H-pyrazol-1-yl]-3-(4-{[2-(trifluoromethyl)pyrimidin-4-yl]carbonyl}piperazin-1-yl)cyclobutyl]acetonitrile]
[1]
  IC50: < 10 nM
[2]
  JAK2/JAK1: >10
